This is an account of results in publication PMC3224971, “An exo-cell assay for examining real-time γ-secretase activity and inhibition” (Molecular Neurodegeneration, 2009).

Usually IC50 stands for the point on the concentration scale where inhibition reaches its midpoint. Low readings indicate inhibition by little substance, high ones a need for much substance. The inhibition is the drop in the measured response relative to a control, in per cent. Lower therefore signals a response near the control.

For assay [1], the target named is T1, γ-secretase (Mus musculus, UniProt P49769). The assay can be described thus: cell-based γ-secretase assay in N2A cells stably overexpressing APP. The note with it: 24 hours with GSI, Aβ 40-site cleavage, ECL detection. The procedure:
The cell-based assay utilized N2A mouse neuroblastoma cells that stably overexpress the amyloid precursor protein. These were incubated with γ-secretase inhibitors in a final concentration of 1% DMSO for 24 hours. Following incubation, the supernatant was removed from the cells and assayed for Aβ 40-site cleaved APP product using ruthenylated G2-10* antibody as well as biotinylated 4G8 antibody.

Assay [2] deals with T2, γ-secretase (Homo sapiens, UniProt P49768). Kind of assay: exo-cell γ-secretase assay in HeLa cells. In kind it is cell-based. The note with it: HeLa cells incubated simultaneously with GSI, 1 μM Sb4 and 0.25% CHAPSO, 2.5 hours; ECL detection. On the procedure:
(§1) Cells were seeded at their indicated concentration in 96-well plates and allowed to attach overnight (Fig. 1c). The next day, media was removed and cells were washed once with PBS. Fresh media was then added containing 0.25% CHAPSO detergent, Sb4 substrate to a final concentration of 1 μM, and 1% DMSO or γ-secretase inhibitor. This was incubated for 2.5 hours at 37°C. Media was removed and cell debris was pelleted from this media for 5 min. at 3,500 rpm's. Supernatant was then added to ruthenylated G2-10* antibody that recognizes cleaved product, but not uncleaved substrate. This was incubated for an additional 2 hours at room temperature. Finally, magnetic streptavidin beads were added to a final concentration of 80 μg/ml and incubated for 30 min. at room temperature. Assay buffer was added to the samples and γ-secretase-mediated cleavage of substrate was monitored using electrochemiluminescence (ECL). Protocol for HTRF detection can be found below.
Homogeneous time-resolved fluorescence (HTRF) was also incorporated for the exo-cell assay detection of cleaved substrate. […] Exo-cell supernatent and HTRF detection mix were incubated together for 5 hours in a 384-well plate and then activity was measured by stimulating at 337 nm and reading at 665 nm.

The next assay concerns A20 mouse lymphoma cells. The assay can be described thus: lymphoma proliferation assay ([3H]thymidine incorporation). In kind it is cell-based. The note with it: for inhibition of cellular proliferation (in words): 48 hours of treatment. The procedure: A20 mouse lymphoma cells were seeded in a 96-well plate at a concentration of 5 × 10^5 cells/ml in 100 μl RPMI media containing 2% fetal bovine serum. An additional 100 μl of media containing DMSO or γ-secretase inhibitor was added and incubated for 48 hours at 37°C. After this incubation, the cells were incubated for 5 hours with 2 μCi/ml [^3H]thymidine at 37°C. Proliferative response was then evaluated by harvesting the tritiated DNA from cells using a Skatron cell harvester and proliferation assessed as a function of [^3H]thymidine incorporation measured on a β-counter.
A general note: Incorporation of labelled thymidine or its analogues reports DNA synthesis.

In assay [3] the target is T2, γ-secretase. Kind of assay: extended exo-cell γ-secretase assay in HeLa cells. The class given is cell-based. The procedure: as §1
Conversely, an extended exo-cell assay was performed whereby cells were seeded and allowed to attach overnight as previously described. However, the next day media was removed and replaced with fresh media containing 1% DMSO or γ-secretase inhibitor. These were incubated for 24 hours at 37°C. Following this incubation, the cells were washed once with PBS and fresh media containing detergent and substrate were added. […]

Assay [4] concerns the target T2, γ-secretase. Kind of assay: in vitro γ-secretase assay with Sb4 substrate and solubilized γ-secretase. The class given is biochemical. The note with it: Sb4 substrate, 0.25% CHAPSO, solubilized γ-secretase, 2.5 hours at 37°C, ECL detection. The procedure:
The in vitro and cell-based γ-secretase assays were performed similarly as previously described. Briefly, the recombinant Sb4 substrate was incubated for 2.5 hours at 37°C in pH 7.0 PIPES buffer in the presence of 0.25% CHAPSO detergent and solubilized γ-secretase at a final concentration of 40 ng/ul. The detection of cleaved substrate was determined using ruthenylated G2-10* antibody. Due to biotinylation of the Sb4 substrate, this eliminated the additional use of 6E10 biotinylated antibody from the original protocol.

For assay [5], the target named is T1, γ-secretase. Kind of assay: real-time exo-cell γ-secretase assay in A20 mouse lymphoma cells. The class given is cell-based. The following applies: 300 nM, 48 hours treatment. The procedure: Figure 4 Examination of real-time γ-secretase activity in A20 lymphoma and in primary B-CLL patient samples. (a) Correlation between real-time inhibition of γ-secretase activity and GSI-mediated inhibition of A20 mouse lymphoma proliferation. Two 96-well plates were seeded with 50,000 A20 mouse lymphoma cells per well in 100 μl RPMI media. To each of these plates an additional 100 μl of media was added containing DMSO or GSI-34 to indicated final concentration. These plates were incubated for 48 hours at 37°C. Following this incubation, one plate was used in a real-time exo-cell assay to quantitate the real-time inhibition of γ-secretase in A20 cells. Briefly, A20 cells were pelleted and media removed. Fresh media containing 1 μM Sb4 substrate and 0.25% CHAPSO detergent were added and the exo-cell assay was performed. For each assay point n = 4, and s.d. is plotted. Additionally, to the other 96-well plate 2 μCi/ml [^3H]thymidine was incubated with the cells for 5 hours. Following 5-hour incubation at 37°C, the amount of tritiated DNA was quantified on a β-counter. For each proliferation assay point n = 10, and s.d. is plotted. (b) Real-time γ-secretase activity in primary B-CLL patient samples. […] Assay buffer was added to the samples and γ-secretase-mediated cleavage of substrate was monitored using electrochemiluminescence (ECL). […]

The structures appear in SMILES notation.

As to `CC(NC(=O)Cc1cc(F)cc(F)c1)C(=O)NC1N=C(c2ccccc2)c2ccccc2N(C)C1=O` (stereo not shown) [Compound E], the IC50 turned out to be 4.6 nM against γ-secretase [1]; 3.8 nM against γ-secretase [2]; 2.8 nM against γ-secretase [3] (HeLa cells incubated with GSI for 24 hours, washed, then Sb4 and CHAPSO, ECL detection). In the assay on A20 mouse lymphoma cells, the “inhibition of cellular proliferation (in words)” value was “able to inhibit cellular proliferation”.
`O=C(COc1ccc(F)cc1)Nc1ccc2c(c1)CC1CCC(C2)C1NS(=O)(=O)c1ccc(Cl)s1` (stereo not shown) [GSI-34]: in the assay on A20 mouse lymphoma cells (300 nM, 48 hours treatment), the “reduction of cellular proliferation” value worked out at 30%. For the same molecule, the “inhibition of cellular proliferation (in words)” value with A20 mouse lymphoma cells is reported as “able to inhibit cellular proliferation”. Further, at γ-secretase [4], 1 nM corresponded to half-maximal inhibition (IC50). Also, at γ-secretase [5], the inhibition at 0.3 µM was about 80%. Besides, the “inhibition of γ-secretase activity (in words)” value against γ-secretase [3] (HeLa cells treated 24 hours with varying concentrations) is recorded as “Dose-dependent inhibition”.
Regarding `CC(C)C[C@H](NC(=O)[C@H](Cc1ccccc1)C[C@@H](O)[C@H](Cc1ccccc1)NC(=O)OC(C)(C)C)C(=O)N[C@@H](Cc1ccccc1)C(N)=O` [L-685,458], the “inhibition of cellular proliferation (in words)” value with A20 mouse lymphoma cells was “able to inhibit cellular proliferation”.
